According to patent US4292321A, “1,3,8-Triazaspirodecane-4-ones, pharmaceutical compositions thereof and method of use thereof” (Warner-Lambert Company, priority 1980, dated 1981):
Where two headings read alike, the source gives them in different places.

Target: T1, dopamine receptor (Bos taurus, UniProt P20288)
T1 construct: from tissue
Experiment: 3H-haloperidol receptor binding assay (HRBA)
Description: The compounds of this invention are useful because of their valuable pharmacological properties. […] As with other known neuroleptics, the compounds of this invention readily displace ^3 H-haloperidol from dopamine receptor binding sights in the ^3 H-haloperidol receptor binding assay (HRBA). […] The HRBA screen is described by I. Creese, D. R. Burt and S. H. Snyder, Science 142: 480 (1976) and by B. Seeman, T. Lee, M. Chani-Wong and K. Wong, Nature 261: 717 […].

[1] = read-out: inhibition of 3H-haloperidol binding
[2] = 10 n moles concentration, read-out: inhibition of 3H-haloperidol binding

T1 sequence (P20288 whole entry): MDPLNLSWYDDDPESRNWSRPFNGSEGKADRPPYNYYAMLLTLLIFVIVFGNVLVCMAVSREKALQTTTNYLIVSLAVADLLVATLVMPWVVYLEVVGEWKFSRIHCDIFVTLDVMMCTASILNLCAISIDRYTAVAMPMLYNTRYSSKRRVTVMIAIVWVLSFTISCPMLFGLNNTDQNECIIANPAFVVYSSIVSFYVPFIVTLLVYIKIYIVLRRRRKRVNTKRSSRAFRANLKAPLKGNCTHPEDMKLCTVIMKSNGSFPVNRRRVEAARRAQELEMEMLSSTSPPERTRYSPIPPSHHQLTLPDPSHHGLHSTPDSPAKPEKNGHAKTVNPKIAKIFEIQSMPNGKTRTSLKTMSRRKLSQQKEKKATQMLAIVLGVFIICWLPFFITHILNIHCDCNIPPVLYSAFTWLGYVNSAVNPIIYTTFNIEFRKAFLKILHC

inhibition at 0.01 µM [2] [%] | Structure (SMILES) | inhibition at 0.01 µM [1] [%] | inhibition at 0.1 µM [1] [%] | also measured
 | c1ccc(OC2CCN(CCCN(c3ccccc3)c3ccccc3)CC2)cc1 [Example 22, 4-Phenoxy-N,N-diphenyl-1-piperidinepropanamine ethanedioate] | ~7 | ~59 | 
 | O=C1NCN(c2ccc(F)cc2)C12CCN(CCCN(c1ccc(F)cc1)c1ccc(F)cc1)CC2 [Example 5, 8-[3-[Bis-(4-fluorophenyl)amino]propyl]-1-(4-fluorophenyl)-1,3,8-triazaspiro[4,5]decan-4-one] | ~84 | ~100 | 
 | OC1(c2ccc(Cl)cc2)CCN(CCCN(c2ccc(F)cc2)c2ccc(F)cc2)CC1 [Example 20, 1-(3-[Bis(4-fluorophenyl)amino]propyl)-4-(4-chlorophenyl)-4-piperidinol ethanedioate] | ~74 | ~100 | 
~78 | O=c1[nH]c2ccccc2n1C1CCN(CCCN(c2ccc(F)cc2)c2ccc(F)cc2)CC1 [Example 6, 1-(1[3-[Bis(4-fluorophenyl)amino]propyl]-4-piperidyl)-1,3-dihydro-2H-benzimidazol-2-one] |  |  | inhibition at 0.001 µM (1 n mole concentration, read-out: inhibition of 3H-haloperidol binding): ~50%
 | FC(F)(F)c1cccc(OC2CCN(CCCN(c3ccccc3)c3ccccc3)CC2)c1.O=C(O)C(=O)O [Example 24, N,N-diphenyl-4-[3-(trifluoromethyl)phenoxy]-1-piperidinepropanamine ethanedioate] |  | ~8 | inhibition of 3H-haloperidol binding (10 n moles concentration): no inhibition
~53 | Cc1cc2[nH]c(=O)n(C3CCN(CCCN(c4ccccc4)c4ccccc4)CC3)c2cc1C [Example 13, 1-[1-(3-[Diphenylamino]propyl)-4-piperidiyl]-1,3-dihydro-5,6-dimethyl-2H-benzimidazol-2-one] |  |  | inhibition at 0.1 µM (100 n moles concentration, read-out: inhibition of 3H-haloperidol binding): ~93%
